Measurements: patent US4160829A, “Antibacterial 1,2,4-oxadiazolylacetamido cephalosporins” (Gist-Brocades N.V., priority 1972, dated 1979)
Values after ≈ are worked out from the molar mass of the structure shown. Read-outs that look alike come from different tables or passages of the source.

Legend:
[1] = system: Bac.Subt.ATCC 6633; assay: agar serial dilution test; type: cell-based, Bacillus subtilis; details: Bacillus subtilis, ATCC6633, 24 h, agar serial dilution, 24 hours, 37° C.; read-out: minimal inhibitory concentration (MIC)
[2] = system: Staph.aureus A 321; assay: agar serial dilution test; type: cell-based, Staphylococcus aureus; details: Staphylococcus aureus, A321, 24 h, agar serial dilution, 24 hours, 37° C.; read-out: minimal inhibitory concentration (MIC)
[3] = system: Staph.aureus A 2000; assay: agar serial dilution test; type: cell-based, Staphylococcus aureus; details: Staphylococcus aureus, A2000, 24 h, agar serial dilution, 24 hours, 37° C.; read-out: minimal inhibitory concentration (MIC)
[4] = system: Staph.aureus A 2001; assay: agar serial dilution test; type: cell-based, Staphylococcus aureus; details: Staphylococcus aureus, A2001, 24 h, read-out: minimal inhibitory concentration (MIC)
[5] = system: Strep.haem. A 266; assay: agar serial dilution test; type: cell-based, Streptococcus haemolyticus; details: Streptococcus; agar serial dilution, 24 hours, 37° C.; read-out: minimal inhibitory concentration (MIC)
[6] = system: Strep. faec. L 80; assay: agar serial dilution test; type: cell-based, Streptococcus faecalis; details: Enterococcus faecalis; agar serial dilution, 24 hours, 37° C.; read-out: minimal inhibitory concentration (MIC)
[7] = system: Dipl.pneum. L 54; assay: agar serial dilution test; type: cell-based, Diplococcus pneumoniae; details: Streptococcus pneumoniae; agar serial dilution, 24 hours, 37° C.; read-out: minimal inhibitory concentration (MIC)
[8] = system: Bruc.melit. A 488; assay: microbe, parasite or virus in culture; type: cell-based; details: Brucella melitensis, 24 h, read-out: minimal inhibitory concentration (MIC)
[9] = system: Past.multo. A 723; assay: agar serial dilution test; type: cell-based, Pasteurella multocida; details: Pasteurella multocida; agar serial dilution, 24 hours, 37° C.; read-out: minimal inhibitory concentration (MIC)
[10] = system: Kleb.pneum. A 809; assay: agar serial dilution test; type: cell-based, Klebsiella pneumoniae; details: Klebsiella pneumoniae; agar serial dilution, 24 hours, 37° C.; read-out: minimal inhibitory concentration (MIC)
[11] = system: Salm.dubl. P 43; assay: agar serial dilution test; type: cell-based, Salmonella dublin; details: Salmonella enterica, read-out: minimal inhibitory concentration (MIC)
[12] = system: Salm.typh. R 127; assay: agar serial dilution test; type: cell-based; details: 24 h, 37° C., read-out: minimal inhibitory concentration (MIC)
[13] = system: Esch.coli U 20; assay: agar serial dilution test; type: cell-based, Escherichia coli; details: Escherichia coli
[14] = system: Shig.equir. T 3; assay: agar serial dilution test; type: cell-based; details: 24 h, 37° C., read-out: minimal inhibitory concentration (MIC)
[15] = system: Pseud.aerug. H 10; assay: agar serial dilution test; type: cell-based; details: agar serial dilution, 24 hours, 37° C.; read-out: minimal inhibitory concentration (MIC)
[16] = system: Pseud.aerug. 2396; assay: agar serial dilution test; type: cell-based; details: agar serial dilution, 24 hours, 37° C.; read-out: minimal inhibitory concentration (MIC)
[17] = system: Pseud.aerug. Wyeth A 1058; assay: agar serial dilution test; type: cell-based; details: agar serial dilution, 24 hours, 37° C.; read-out: minimal inhibitory concentration (MIC)
[18] = system: Prot.rettg. A 821; assay: agar serial dilution test; type: cell-based, Proteus rettgeri; details: Providencia rettgeri, 24 h, read-out: minimal inhibitory concentration (MIC)
[19] = system: Prot.mirab. H 3; assay: agar serial dilution test; type: cell-based, Proteus mirabilis; details: Proteus mirabilis; agar serial dilution, 24 hours, 37° C.; read-out: minimal inhibitory concentration (MIC)
[20] = system: Prot.mirab. L 93; assay: agar serial dilution test; type: cell-based, Proteus mirabilis; details: Proteus mirabilis; agar serial dilution, 24 hours, 37° C.; read-out: minimal inhibitory concentration (MIC)
[21] = system: Prot.mirab. A 1200; assay: agar serial dilution test; type: cell-based, Proteus mirabilis; details: Proteus mirabilis, 24 h, read-out: minimal inhibitory concentration (MIC)
[22] = system: Prot.morg. 2241; assay: agar serial dilution test; type: cell-based; details: 24 h, agar serial dilution, 24 hours, 37° C.; read-out: minimal inhibitory concentration (MIC)
[23] = system: Staph.aureus A 355; assay: micro serial dilution test; type: cell-based, Staphylococcus aureus; details: Staphylococcus aureus, A355; micro serial dilution (in brackets), about 18 hours, 30° C. or 37° C.; penicillinase-producing strain; read-out: minimal inhibitory concentration (MIC)
[24] = system: Staph.aureus A 2000; assay: micro serial dilution test; type: cell-based, Staphylococcus aureus; details: Staphylococcus aureus, A2000, 18 h, micro serial dilution (in brackets), about 18 hours, 30° C. or 37° C.; read-out: minimal inhibitory concentration (MIC)
[25] = system: Staph.aureus A 2001; assay: micro serial dilution test; type: cell-based, Staphylococcus aureus; details: Staphylococcus aureus, A2001, 18 h, micro serial dilution (in brackets), about 18 hours, 30° C. or 37° C.; read-out: minimal inhibitory concentration (MIC)
[26] = system: Haem.infl. A 1030; assay: micro serial dilution test; type: cell-based; details: 18 h, micro serial dilution (in brackets), about 18 hours, 30° C. or 37° C.; read-out: minimal inhibitory concentration (MIC)
[27] = system: Staph.aureus A 355; assay: agar serial dilution test; details: Staphylococcus aureus, A355, 24 h, read-out: minimal inhibitory concentration (MIC), agar serial dilution, 24 hours, 37° C.; penicillinase-producing strain
[28] = agar serial dilution, 24 hours, 37° C.
[29] = U20, agar serial dilution, 24 hours, 37° C., read-out: minimal inhibitory concentration (MIC)
[30] = U20, 24 h, read-out: minimal inhibitory concentration (MIC), agar serial dilution, 24 hours, 37° C.

Row | Compound | MIC [1] | MIC [2] | MIC [3] | MIC [5] | MIC [6] | MIC [7] | MIC [8] | MIC [9] | MIC [10] | MIC [12] | MIC [14] | MIC [15] | MIC [16] | MIC [17] | MIC [19] | MIC [20] | MIC [22] | MIC [23] | MIC [24] | MIC [25] | also measured
1 | CC(=O)OCC1=C(C(=O)O)N2C(=O)[C@@H](NC(=O)Cc3nc(-c4c(Cl)cccc4Cl)no3)[C@H]2SC1 [Example 11C, 7-{[3-(2,6-dichlorophenyl)-1,2,4-oxadiazol-5-yl]-acetamido}cephalosporanicacid] | 0.12 µg/mL (≈ 0.228 µM) | 0.12 µg/mL (≈ 0.228 µM) | 0.5 µg/mL (≈ 0.948 µM) | 0.03 µg/mL (≈ 0.0569 µM) | 1.5 µg/mL (≈ 2.84 µM) | 0.06 µg/mL (≈ 0.114 µM) | 6 µg/mL (≈ 11.4 µM) | 6 µg/mL (≈ 11.4 µM) | 12.5 µg/mL (≈ 23.7 µM) | > 100 µg/mL | 25 µg/mL (≈ 47.4 µM) | > 100 µg/mL | > 100 µg/mL | > 100 µg/mL | > 100 µg/mL | 100 µg/mL (≈ 190 µM) | > 100 µg/mL | 0.69 µg/mL (≈ 1.31 µM) | 0.18 µg/mL (≈ 0.341 µM) | 0.25 µg/mL (≈ 0.474 µM) | MIC [4, 28]: 0.5 µg/mL (≈ 0.948 µM); MIC [11, 28]: > 100 µg/mL; MIC [13, 29]: > 100 µg/mL; MIC [18, 28]: 3 µg/mL (≈ 5.69 µM); MIC [21, 28]: > 100 µg/mL; MIC [26]: 23 µg/mL (≈ 43.6 µM); MIC [27]: 0.5 µg/mL (≈ 0.948 µM)
2 | CC(=O)OCC1=C(C(=O)O)N2C(=O)[C@@H](NC(=O)Cc3noc(C)n3)[C@H]2SC1 [Example 11D, 7-[(5-methyl-1,2,4-oxadiazol-3-yl)-acetamido]-cephalosporanic acid] | 0.5 µg/mL (≈ 1.26 µM) | 1 µg/mL (≈ 2.52 µM) | 3 µg/mL (≈ 7.57 µM) | 0.5 µg/mL (≈ 1.26 µM) | 100 µg/mL (≈ 252 µM) | 1.5 µg/mL (≈ 3.78 µM) | 10 µg/mL (≈ 25.2 µM) | 6 µg/mL (≈ 15.1 µM) | 6 µg/mL (≈ 15.1 µM) | 12.5 µg/mL (≈ 31.5 µM) | 1.5 µg/mL (≈ 3.78 µM) | > 100 µg/mL | > 100 µg/mL | > 100 µg/mL | 6 µg/mL (≈ 15.1 µM) | 6 µg/mL (≈ 15.1 µM) | > 100 µg/mL | 6 µg/mL (≈ 15.1 µM) | 1.2 µg/mL (≈ 3.03 µM) | 0.6 µg/mL (≈ 1.51 µM) | MIC [4, 28]: 3 µg/mL (≈ 7.57 µM); MIC ([11]; 24 h): 12.5 µg/mL (≈ 31.5 µM); MIC [13, 30]: 12.5 µg/mL (≈ 31.5 µM); MIC [18, 28]: 40 µg/mL (≈ 101 µM); MIC [21]: 12.5 µg/mL (≈ 31.5 µM); MIC [26]: 90 µg/mL (≈ 227 µM); MIC [27]: 6 µg/mL (≈ 15.1 µM)
3 | CC1=C(C(=O)O)N2C(=O)[C@@H](NC(=O)Cc3nc(C)no3)[C@H]2SC1 [Example 11F, 7-[(3-methyl-1,2,4-oxadiazol-5-yl)-acetamido]-desacetoxycephalosporanic acid] | 6 µg/mL (≈ 17.7 µM) | 6 µg/mL (≈ 17.7 µM) | 50 µg/mL (≈ 148 µM) | 6 µg/mL (≈ 17.7 µM) | > 100 µg/mL | 50 µg/mL (≈ 148 µM) | 6 µg/mL (≈ 17.7 µM) | 100 µg/mL (≈ 296 µM) | 100 µg/mL (≈ 296 µM) | > 100 µg/mL | 12.5 µg/mL (≈ 36.9 µM) | > 100 µg/mL | > 100 µg/mL | > 100 µg/mL | > 100 µg/mL | > 100 µg/mL | > 100 µg/mL | 15 µg/mL (≈ 44.3 µM) | 15 µg/mL (≈ 44.3 µM) | 8 µg/mL (≈ 23.6 µM) | MIC [4]: 12.5 µg/mL (≈ 36.9 µM); MIC [11, 28]: 100 µg/mL (≈ 296 µM); MIC [13, 29]: > 100 µg/mL; MIC [18, 28]: > 100 µg/mL; MIC [21, 28]: > 100 µg/mL; MIC [26]: 125 µg/mL (≈ 369 µM); MIC [27]: 50 µg/mL (≈ 148 µM)
4 | Cc1nc(CC(=O)N[C@@H]2C(=O)N3C(C(=O)O)=C(CN=[N+]=[N-])CS[C@H]23)no1 [Example 18, 7-[(5-methyl-1,2,4-oxadiazol-3-yl)-acetamido]-3-azidomethyl-3-cephem-4-carboxylic acid] | 1 µg/mL (≈ 2.64 µM) | 1 µg/mL (≈ 2.64 µM) | 1.5 µg/mL (≈ 3.95 µM) | 0.25 µg/mL (≈ 0.659 µM) | > 100 µg/mL | 3 µg/mL (≈ 7.91 µM) | 6 µg/mL (≈ 15.8 µM) | 10 µg/mL (≈ 26.4 µM) | 6 µg/mL (≈ 15.8 µM) | 12.5 µg/mL (≈ 33 µM) | 3 µg/mL (≈ 7.91 µM) | > 100 µg/mL | > 100 µg/mL | > 100 µg/mL | 25 µg/mL (≈ 65.9 µM) | 6 µg/mL (≈ 15.8 µM) | > 100 µg/mL | 1.2 µg/mL (≈ 3.16 µM) | 1.2 µg/mL (≈ 3.16 µM) | 0.9 µg/mL (≈ 2.37 µM) | MIC [4, 28]: 1 µg/mL (≈ 2.64 µM); MIC [11, 28]: 6 µg/mL (≈ 15.8 µM); MIC [13, 30]: 12.5 µg/mL (≈ 33 µM); MIC [18]: 12.5 µg/mL (≈ 33 µM); MIC [21, 28]: 25 µg/mL (≈ 65.9 µM); MIC [26]: 6 µg/mL (≈ 15.8 µM); MIC [27]: 1.5 µg/mL (≈ 3.95 µM)
